Values joined by “and” are separate entries in the source; they are usually repeats but may differ in a detail not shown here. Equal entries are not always repeated. Where two headings read alike, the source gives them in different places.
Tests used:
[1] = test system: A2780cis^R human ovarian carcinoma cell line (cisplatin resistant); test: 96 h growth inhibition, sulforhodamine B assay, A2780cisR; format: cell-based; conditions: for IC50: 96 h exposure, growth inhibition, v = variable (mean); for RF resistance factor: IC50 resistant line/IC50 parent line: A2780cis^R / A2780
[2] = test system: CH1 human ovarian carcinoma cell line; test: 96 h growth inhibition, sulforhodamine B assay, CH1; format: cell-based; conditions: 96 h exposure, v = variable (mean)
[3] = test system: A2780 human ovarian carcinoma cell line; test: 96 h growth inhibition, sulforhodamine B assay, A2780; format: cell-based; conditions: 96 h exposure, v = variable (mean)
[4] = test system: T. brucei (S427) bloodstream trypomastigotes; test: Trypanosoma brucei bloodstream trypomastigote culture; format: cell-based
[5] = test system: SKOV3 human ovarian carcinoma cell line; test: 96 h growth inhibition, sulforhodamine B assay, SKOV3; format: cell-based; conditions: 96 h exposure, v = variable (mean)
[6] = test system: CH1dox^R human ovarian carcinoma cell line (doxorubicin resistant); test: 96 h growth inhibition, sulforhodamine B assay, CH1doxR; format: cell-based; conditions: for IC50: 96 h exposure, growth inhibition; for RF resistance factor: IC50 resistant line/IC50 parent line: CH1dox^R / CH1
[7] = test system: CH1cis^R human ovarian carcinoma cell line (cisplatin resistant); test: 96 h growth inhibition, sulforhodamine B assay, CH1cisR; format: cell-based; conditions: for IC50: 96 h exposure, growth inhibition, v = variable (mean); for RF resistance factor: IC50 resistant line/IC50 parent line: CH1cis^R / CH1
[8] = test system: T. cruzi (MHOM/BR/00/Y); test: Trypanosoma cruzi in mouse peritoneal macrophages; format: cell-based
Method: Trypanosoma cruzi: […] Drug activity was determined from the % of infected macrophages in treated cultures. Nifurtimox was used as the positive control.

[9] = test system: P falciparum (chloroquin resistant strain K1); test: In vitro antimalarial activity, chloroquine resistant K1; conditions: for % Inhibition (compound duplicates), K1 P. falciparum: duplicates (1),(2)
Method: Plasmodium falciparum: P falciparum (chloroquin resistant strain K1) was cultured at 37° C. in a 5% suspension of infected so erythrocytes (group A Rh^+) in complete medium as described by E L Elueze, S L Croft and D C Warhurst, J Antimicrobial Chemotherapy, 1996, 37, 511-518. The in vitro antimalarial activity of compounds were likewise determined according to their protocol. Mefloquin was used as the positive control.”

Row | SMILES | IC50 [1] [µM] | RF resistance factor: IC50 resistant line/IC50 parent line [1] | IC50 [2] [µM] | IC50 [3] [µM] | % Inhibition, Trypanosoma brucei ([4]; 0.1 μM) [%] | % Inhibition, Trypanosoma brucei ([4]; 0.3 μM) [%] | % Inhibition, Trypanosoma brucei ([4]; 1 μM) [%] | % Inhibition, Trypanosoma brucei ([4]; 3 μM) [%] | % Inhibition, Trypanosoma brucei ([4]; 10 μM) [%] | % Inhibition, Trypanosoma brucei ([4]; 30 μM) [%] | IC50 [5] [µM] | IC50 [6] [µM] | RF resistance factor: IC50 resistant line/IC50 parent line [6] | IC50 [7] [µM] | RF resistance factor: IC50 resistant line/IC50 parent line [7] | % Inhibition, Trypanosoma cruzi ([8]; 1 μM) [%] | % Inhibition, Trypanosoma cruzi ([8]; 3 μM) [%] | % Inhibition, Trypanosoma cruzi ([8]; 10 μM) [%] | % Inhibition, Trypanosoma cruzi ([8]; 30 μM) [%] | also measured
1 | F[B-](F)(F)F.F[B-](F)(F)F.c1cc[n+]2c(c1)-c1cccc3[n+]1[Pt-2]2([n+]1ccsc1)[n+]1ccccc1-3 [Compound A6] | > 100 | 1 | 17 | 18.6 | 75.4 | 100 | 100 | 100 | 100 | 100 | > 100 | 6.3 | 0.4 | 17 | 1 | 0 | 0 | 5.0 | – | –
2 | CC#[N+][Pt-2]12[n+]3ccccc3-c3cccc([n+]31)-c1cccc[n+]12.F[B-](F)(F)F.F[B-](F)(F)F [Compound A8] | 100 | 2 | 18 | 50 | – | – | 100 | 100 | 100 | 100 | > 100 | 13 | 0.7 | 18.5 | 1 | 0 | 0 | 4.0 | 38.0 | –
3 | F[B-](F)(F)F.F[B-](F)(F)F.[NH3+][Pt-2]12[n+]3ccccc3-c3cccc([n+]31)-c1cccc[n+]12 [Compound A12] | 23.5 | 2 | 5.2 | 11.5 | 83.8 | 98.5 | 100 | 100 | 100 | 100 | 15 | 3.75 | 0.7 | 4.5 | 0.9 | 72.3 | 100 | 100 | 100 | –
4 | Cc1cc[n+]([Pt-2]23[n+]4ccccc4-c4cc(Cl)cc([n+]42)-c2cccc[n+]23)cc1.F[B-](F)(F)F.F[B-](F)(F)F [I] | 14.5 | 1 | 6.35 | 14.5 | 99.2 | 83.8 | 100 | 100 | 100 | 100 | 5.6 | 0.425 | 0.07 | 6.4 | 1 | 59.7 | 73.5 | 97.0 | 100 | % Inhibition (compound duplicates), K1 P. falciparum ([9]; Concn. 15 μM): 14.2% and 9.4%; % Inhibition (compound duplicates), K1 P. falciparum ([9]; Concn. 30 μM): 93.2% and 90.9%; % Inhibition (compound duplicates), K1 P. falciparum ([9]; Concn. 75 μM): 1.9% and 2.1%; % Inhibition (compound duplicates), K1 P. falciparum ([9]; Concn. 375 μM): 0%; % Inhibition (compound duplicates), K1 P. falciparum ([9]; Concn. 1875 μM): 0%; % Inhibition (compound duplicates), K1 P. falciparum ([9]; Concn. 09375 μM): 0%; % Inhibition (compound duplicates), K1 P. falciparum ([9]; Concn. 046875 μM): 0%; % Inhibition (compound duplicates), K1 P. falciparum ([9]; Concn. 0234375 μM): 0%; IC50 ([9]; read-out: IC50 (avg), K1 P. falciparum, average of duplicates): 20.6 µM; IC50 ([9]; read-out: IC50, K1 P. falciparum, each duplicate (1),(2)): 19.9 µM and 21.2 µM

Reference: US20020013306A1, “TERPYRIDINE-PLATINUM(II) COMPLEXES” (priority 1996, published 2002)
